From paper PMC12476453, “Chemosensation of the pheromone spermine by the olfactory TAAR-like receptor TAAR348” (Cell Discovery, 2025) come the findings set out here.

SMILES strings stand for the structures.

In the assay the target is T1, TAAR348 (Petromyzon marinus, UniProt A0A678XLR1).
T1 construct: TAAR-like GPCR overexpressed in HEK293 cells with Gs BRET2 sensors; cryo-EM complex with Gs (Gαs, Gβ, Gγ), NB35 and ScFv16; construct details only in supplement
T1 sequence (A0A678XLR1 1-348): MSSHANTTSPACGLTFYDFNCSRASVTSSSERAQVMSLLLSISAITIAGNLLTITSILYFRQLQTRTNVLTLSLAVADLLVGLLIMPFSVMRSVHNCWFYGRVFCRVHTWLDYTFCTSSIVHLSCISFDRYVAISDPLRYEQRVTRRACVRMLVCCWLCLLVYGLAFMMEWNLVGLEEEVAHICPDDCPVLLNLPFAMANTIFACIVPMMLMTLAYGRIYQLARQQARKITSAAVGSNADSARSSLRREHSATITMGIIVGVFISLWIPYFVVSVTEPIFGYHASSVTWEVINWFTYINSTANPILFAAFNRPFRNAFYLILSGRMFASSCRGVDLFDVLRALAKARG
Description: BRET2 G protein trimer dissociation assay (Gs). It is filed as cell-based. In general terms: BRET reads energy transfer from a luciferase to a nearby fluorophore.

The compound `NCCCNCCCCNCCCN` [spermine] registered an EC50 of 155 ± 6.9 nM.

Usually EC50 stands for the concentration needed to bring the measured effect to its halfway point.
